The values that follow come from patent US12427179B2, “Compositions and methods for diagnosis and treatment of neurodegenerative diseases” (EPITRACKER, INC., priority 2019, dated 2025).

Common to all, as to assay type: cell-based, human
What all share (details): at the compound's active concentration

In experiment [1] the test system is LPS: Venular endothelial cells, peripheral blood mononuclear cells (TLR4 ligand). The experiment in a line: BioMAP LPS system. As for the experimental part:
Anti-inflammatory phenotypic profiling was conducted across 12 human primary cell-based systems as part of DiscoverX's BioMAP Diversity Plus program. These systems are designed to model complex human tissue and disease biology of the vasculature, skin, lung, and inflammatory tissues. Quantitative measurements of biomarker activities across this broad panel were used to assess each biochemical's anti-inflammatory activity at four concentrations ([…] and 2.2, 6.7 and 20 μM). […] Protein-based biomarkers from activated cell systems were measured and compared with controls. Biomarker activities were annotated when 2 or more consecutive concentrations change in the same directions relative to vehicle controls, were outside of the significance envelope and had at least one concentration with an effect size>20% (log 10 ratio)>0.1.
In the first system, human primary peripheral blood mononuclear cells and venular endothelial cells were stimulated with lipopolysaccharide (LPS) and incubated with the test agent, drug control, or vehicle control for 24 hours. In the second system, peripheral blood mononuclear cells and B cells were stimulated with α-IgM and T cell receptor ligands and incubated with the test agent, drug control, or vehicle control for 24 hours. In both systems, a negative, non-stimulated system was also included.
(§1) The Diversity PLUS panel allows test agent characterization in an unbiased way across a broad set of systems modeling various human disease states. These systems are designed to model complex human tissue and disease biology of the vasculature, skin, lung, and inflammatory tissues. Quantitative measurements of 148 biomarker activities across this broad panel, along with comparative analysis of biological activities from known bioactive agents, were used to predict and compare the efficacy and function of each selected compound at selected concentrations (6.7 and/or 20 μM).
BioMAP systems are constructed with one or more primary cell types from healthy human donors, with stimuli (such as cytokines or growth factors) added to capture relevant signaling networks that naturally occur in human tissue or pathological conditions. Vascular biology is modeled in both a Th1 (3C system) and a Th2 (4H system) inflammatory environment, as well as in a Th1 inflammatory state specific to arterial smooth muscle cells (CASM3C system). Additional systems recapitulate aspects of the systemic immune response including monocyte-driven Th1 inflammation (LPS system) or T cell stimulation (SAg system), chronic Th1 inflammation driven by macrophage activation (lMphg system) and the T cell-dependent activation of B cells that occurs in germinal centers (BT system). The BE3C system (Th1) and the BF4T system (Th2) represent airway inflammation of the lung, while the MyoF system models myofibroblast-lung tissue remodeling. Lastly, skin biology is addressed in the KF3CT system modeling Th1 cutaneous inflammation and the HDF3CGF system modeling wound healing.
(§2) Each test agent generates a signature BioMAP profile that is created from the changes in protein biomarker readouts within individual system environments. Biomarker readouts (7-17 per system) are selected for therapeutic and biological relevance, are predictive for disease outcomes or specific drug effects and are validated using agents with known mechanism of action (MoA). Each readout is measured quantitatively by immune-based methods that detect protein (e.g., ELISA) or functional assays that measure proliferation and viability. BioMAP readouts are diverse and include cell surface receptors, cytokines, chemokines, matrix molecules and enzymes. In total, the Diversity PLUS panel contains 148 biomarker readouts that capture biological changes that occur within the physiological context of the particular BioMAP system. […]

The subject of experiment [2] is 3C system (Th1 vascular biology). Put plainly: BioMAP 3C system.
Description: as §2, with “The Diversity PLUS panel allows test agent characterization in an unbiased way across a broad set of systems modeling various human disease states. These systems are designed to model complex human tissue and disease biology of the vasculature, skin, lung, and inflammatory tissues. […] BioMAP systems are constructed with one or more primary cell types from healthy human donors, with stimuli (such as cytokines or growth factors) added to capture relevant signaling networks that naturally occur in human tissue or pathological conditions. […] Each test” for “Each test”

The subject of experiment [3] is 4H: Venular endothelial cells (IL-4, histamine). Put plainly: BioMAP 4H system.
Description: as §1
BioMAP systems are constructed with one or more primary cell types from healthy human donors, with stimuli (such as cytokines or growth factors) added to capture relevant signaling networks that naturally occur in human tissue or pathological conditions. Vascular biology is modeled in both a Th1 (3C system) and a Th2 (4H system) inflammatory environment, as well as in a Th1 inflammatory state specific to arterial smooth muscle cells (CASM3C system). […]
as §2
Activated BioMAP systems were incubated with each compound for 24 to 72 hours. Protein-based biomarkers from activated cell systems were measured and compared with non-treated control systems.

As to `O=C(O)CNC(=O)c1ccccc1` [hippurate], the “CD40, log10 reduction vs nontreated controls” value in experiment [1] is recorded as −0.11 log10. Moreover, the “Tissue factor, log10 reduction vs nontreated controls” value in experiment [2] is listed as −0.10 log10. Further, the “P-selectin, log10 reduction vs nontreated controls” value in experiment [3] was −0.10 log10.
